Patent US11919907B2, “Deuterated JAK inhibitor and uses thereof” (Sun Pharmaceutical Industries, Inc., priority 2020, dated 2024)
Like-named read-outs stand apart in the source and are kept apart here.

How the values were obtained:
[1] = target: T1, kinase domain of human recombinant JAK3 (Homo sapiens, UniProt P52333); test: JAK enzyme biochemical assay (Eurofins CEREP), JAK3; conditions: ATP at Km, 100 nM substrate peptide, 60 minutes, duplicate
T1 construct: using the kinase domains of human recombinant JAK1, JAK2, JAK3 and TYK2
Method: (§1) JAK enzyme biochemical assays were performed at Eurofins CEREP, France using the kinase domains of human recombinant JAK1, JAK2, JAK3 and TYK2. Each enzyme reaction was carried out with Compound 10 (supplied by Concert Pharmaceuticals) or control, JAK enzyme, 100 nM substrate peptide (LANCE® Ultra U-light JAK-1 peptide) and adenosine triphosphate (ATP; concentration at Km) for 60 minutes. Test compounds were dissolved in DMSO and tested in duplicate. It can be seen that Compound 10 had significant potency for inhibition of JAK enzymes.

[2] = target: T2, kinase domain of human recombinant TYK2 (Homo sapiens, UniProt P29597); test: JAK enzyme biochemical assay (Eurofins CEREP), TYK2; conditions: ATP at Km, 100 nM substrate peptide, 60 minutes, duplicate
T2 construct: using the kinase domains of human recombinant JAK1, JAK2, JAK3 and TYK2
T2 sequence (P29597 897-1176 limits assumed): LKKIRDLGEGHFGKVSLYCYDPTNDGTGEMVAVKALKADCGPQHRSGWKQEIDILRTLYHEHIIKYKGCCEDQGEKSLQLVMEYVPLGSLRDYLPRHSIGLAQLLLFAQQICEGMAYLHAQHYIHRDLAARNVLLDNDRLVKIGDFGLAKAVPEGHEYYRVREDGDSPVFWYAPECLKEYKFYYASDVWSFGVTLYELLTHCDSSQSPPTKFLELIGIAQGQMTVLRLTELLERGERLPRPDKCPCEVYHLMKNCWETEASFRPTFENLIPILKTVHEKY
Method: as §1

[3] = target: T3, kinase domain of human recombinant JAK1 (Homo sapiens, UniProt P23458); test: JAK enzyme biochemical assay (Eurofins CEREP), JAK1; conditions: ATP at Km, 100 nM substrate peptide, 60 minutes, duplicate
T3 construct: using the kinase domains of human recombinant JAK1, JAK2, JAK3 and TYK2
Method: as §1

[4] = Metabolic stability using human liver microsomes; format: in vitro ADME; conditions: for half-life at 0.25 μM: human
Method: Materials: Human liver microsomes (20 mg/mL) were obtained from Xenotech, LLC (Lenexa, Kans.). β-nicotinamide adenine dinucleotide phosphate, reduced form (NADPH), magnesium chloride (MgCl2), and dimethyl sulfoxide (DMSO) were purchased from Sigma-Aldrich. Compound 10 and non-deuterated Compound 50 as test compounds were supplied by Concert Pharmaceuticals:
Determination of Metabolic Stability: 7.5 mM stock solutions of test compounds were prepared in DMSO. The 7.5 mM stock solutions were diluted to 12.5 μM in acetonitrile (ACN). The human liver microsomes were diluted in 0.1 M potassium phosphate buffer, pH 7.4, containing 3 mM MgCl2. The diluted microsomes were added to wells of a 96-well deep-well polypropylene plate in triplicate. A 10 μL aliquot of the 12.5 μM test compound was added to the microsomes and the mixture was pre-warmed for 10 minutes. Reactions were initiated by addition of pre-warmed NADPH solution. The final reaction volume was 0.5 mL and contained […] human liver microsomes, 0.25 μM test compound, and 2 mM NADPH in 0.1 M potassium phosphate buffer, pH 7.4, and 3 mM MgCl2. The reaction mixtures were incubated at 37° C., and 50 μL aliquots were removed at 0, 10, 20, 30, 45, and 60 minutes and added to shallow-well 96-well plates which contained 50 μL of ice-cold ACN with internal standard to stop the reactions. The plates were stored at 4° C. for 20 minutes after which 100 μL of water was added to the wells of the plate before centrifugation to pellet precipitated proteins. Supernatants were transferred to another 96-well plate and analyzed for amounts of parent remaining by LC-MS/MS using an Applied Bio-systems mass spectrometer.
Data analysis: The in vitro t1/2s for test compounds were calculated from the slopes of the linear regression of % parent remaining (ln) vs incubation time relationship. in vitro t1/2=0.693/k k=−[slope of linear regression of % parent remaining(ln) vs incubation time] Data analysis was performed using Microsoft Excel Software.

[5] = target: T4, kinase domain of human recombinant JAK2 (Homo sapiens, UniProt O60674); test: JAK enzyme biochemical assay (Eurofins CEREP), JAK2; conditions: ATP at Km, 100 nM substrate peptide, 60 minutes, duplicate
T4 construct: using the kinase domains of human recombinant JAK1, JAK2, JAK3 and TYK2
Method: as §1

[6] = pH 7.4, 5 mg/mL human liver microsomes, 0.25 μM test compound, 2 mM NADPH, 37° C., experiment 2498, read-out: t1/2 EXP# 2498
[7] = pH 7.4, 5 mg/mL human liver microsomes, 0.25 μM test compound, 2 mM NADPH, 37° C., experiment 2500, read-out: t1/2 EXP# 2500
[8] = pH 7.4, 5 mg/mL human liver microsomes, 0.25 μM test compound, 2 mM NADPH, 37° C., experiment 2501, read-out: t1/2 EXP# 2501
[9] = pH 7.4, human liver microsomes, average of EXP# 2498, 2500, 2501, read-out: t1/2 Average

T4 sequence (O60674 849-1124 limits assumed): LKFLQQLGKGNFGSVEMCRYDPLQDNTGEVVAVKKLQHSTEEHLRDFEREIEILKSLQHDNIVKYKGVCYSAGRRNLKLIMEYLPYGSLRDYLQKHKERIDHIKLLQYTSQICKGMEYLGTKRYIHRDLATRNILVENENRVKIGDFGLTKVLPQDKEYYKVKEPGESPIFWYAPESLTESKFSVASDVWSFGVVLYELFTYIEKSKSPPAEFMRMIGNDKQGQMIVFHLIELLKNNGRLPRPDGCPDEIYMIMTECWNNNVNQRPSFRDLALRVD
T3 sequence (P23458 875-1153 limits assumed): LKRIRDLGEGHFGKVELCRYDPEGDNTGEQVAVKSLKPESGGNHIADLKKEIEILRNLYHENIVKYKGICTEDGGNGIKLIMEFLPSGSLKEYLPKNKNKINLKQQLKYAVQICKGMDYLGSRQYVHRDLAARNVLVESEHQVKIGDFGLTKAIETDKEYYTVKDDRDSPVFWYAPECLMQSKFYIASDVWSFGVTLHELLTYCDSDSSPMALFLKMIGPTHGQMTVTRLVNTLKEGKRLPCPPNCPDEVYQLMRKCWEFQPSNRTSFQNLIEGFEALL
T1 sequence (P52333 822-1111 limits assumed): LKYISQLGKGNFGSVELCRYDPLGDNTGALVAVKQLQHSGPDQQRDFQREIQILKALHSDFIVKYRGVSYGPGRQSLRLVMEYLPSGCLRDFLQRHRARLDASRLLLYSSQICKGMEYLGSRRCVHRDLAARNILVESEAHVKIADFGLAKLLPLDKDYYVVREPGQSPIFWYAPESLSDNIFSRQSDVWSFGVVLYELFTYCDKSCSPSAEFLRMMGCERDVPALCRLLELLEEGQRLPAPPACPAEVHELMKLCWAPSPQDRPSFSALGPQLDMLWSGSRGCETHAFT

Row | IC50 [1] [nM] | IC50 [2] [nM] | IC50 [3] [nM] | Average % diff. in t1/2 (longer half-life than non-deuterated Compound 50) ([4]; Compound 10 versus Compound 50, average t1/2) [%] | half-life at 0.25 μM [4, 6] [h] | half-life at 0.25 μM [4, 7] [h] | half-life at 0.25 μM [4, 8] [h] | half-life at 0.25 μM [4, 9] [h] | IC50 [5] [nM] | Compound
1 | 226 | 368 | 63.9 | 176 | 1.6 | 4.5 | 4.97 | 3.68 | 34 | [2H]C1([2H])C([C@@H](CC(N)=O)n2cc(-c3ncnc4[nH]ccc34)cn2)C([2H])([2H])C([2H])([2H])C1([2H])[2H] [Compound 10]
2 | – | – | – | – | 0.822 | 1.33 | 1.87 | 1.33 | – | NC(=O)C[C@H](C1CCCC1)n1cc(-c2ncnc3[nH]ccc23)cn1 [Compound 50, reference compound]
